Laboratory results as given in article doi:10.1101/2025.11.13.687868v1 (biorxiv, 2025).

Experiments:
GPX1 = target: T1, GPX1 (Homo sapiens, UniProt P07203); assay: GR-coupled NADPH fluorescence assay; format: biochemical
T1 sequence (P07203 1-203): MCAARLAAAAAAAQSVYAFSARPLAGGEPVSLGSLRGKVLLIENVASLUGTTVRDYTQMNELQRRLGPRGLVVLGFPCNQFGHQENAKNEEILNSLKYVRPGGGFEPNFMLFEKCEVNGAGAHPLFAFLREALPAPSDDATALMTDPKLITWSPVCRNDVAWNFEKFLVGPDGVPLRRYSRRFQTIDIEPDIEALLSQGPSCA

[1] = target: T2, GPX4 (purified recombinant Sec-containing human GPX4) (Homo sapiens, UniProt P36969); assay: GR-coupled NADPH fluorescence assay; format: biochemical
T2 sequence (P36969 28-197): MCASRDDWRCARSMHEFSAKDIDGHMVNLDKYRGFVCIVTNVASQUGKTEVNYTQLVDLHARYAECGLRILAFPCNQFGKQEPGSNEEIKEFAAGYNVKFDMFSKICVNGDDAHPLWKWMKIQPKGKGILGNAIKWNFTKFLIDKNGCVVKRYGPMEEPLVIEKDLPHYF

- IC50 (GPX1): 6.7 µM
- IC50 [1]: 54.8 µM
SMILES: O=C(O)CC(S)C(=O)O (centres unmarked) [thiomalic acid]
